Experimental data published in PubChem BioAssay AID1053163 (Broad Institute, 2014).

Test system: HepG2 + U0126, LDLR mRNA qRT-PCR, 6 h
Experiment: LDLR mRNA induction under MEK blockade, late-stage follow-up, mechanism study for Trib1 inducer project, cell-based, HepG2, U0126, RT-PCR (AID 1053163)
Settings: active compounds read high

| SMILES | LDLR mRNA fold induction |
| --- | --- |
| CN1C(=O)c2cc(NC(=O)c3ccc(C(F)(F)F)cc3)ccc2OC[C@@H]2O[C@@H](CC(=O)NC3Cc4ccccc4C3)CC[C@@H]21 | 10 |
| CN1C(=O)c2cc(NC(=O)c3ccc(C(F)(F)F)cc3)ccc2OC[C@@H]2O[C@H](CC(=O)NC3Cc4ccccc4C3)CC[C@@H]21 | 2.5 |
